Test results from publication PMC6571685, “Rippled β-Sheet Formation by an Amyloid-β Fragment Indicates Expanded Scope of Sequence Space for Enantiomeric β-Sheet Peptide Coassembly” (Molecules, 2019).
Square brackets hold non-standard residues; d marks the D form. Peptide text beside a SMILES is read from it.

Key:
Assay type in all cases: physicochemical
[1] = Transmission electron microscopy of assemblies, fibril widths; conditions: assembled 21 days in PBS pH 7.4, 5% DMSO, 37 °C, washed with water, uranyl acetate stain; ImageJ, averages from 100–150 measurements
Procedure: Dried, disaggregated peptide aliquots were prepared for assembly as in sedimentation assays, but in larger volumes (greater than or equal to 5 mL) and were allowed to assemble for 21 days so as to allow for complete assembly of all samples. Following assembly, samples were centrifuged at 4300 × g for 90 min at 17 °C to collect aggregates. The supernatant was then carefully removed and deionized water added, mixed, and centrifugation repeated to wash. After first wash, supernatant was again removed and deionized water added and mixed, at which point samples were spotted for TEM or SEM if desired (below). Centrifugation was repeated once more and supernatant removed, and then samples were frozen and lyophilized. Lyophilized pellets were then placed on the solid-state stage of a Shimadzu FTIR-8400S (Shimadzu Corporation, Nakagyo-ku, Kyoto, Japan) spectrometer and analyzed at a resolution of 4 cm^−1.
Fibrils for the TEM images reported were obtained from the same samples that were used for FTIR, above, at the same timepoint. […] TEM images were recorded on a Hitachi 7650 transmission electron microscope in high contrast mode with an accelerating voltage of 80 kV. Fibril widths were measured in ImageJ and are reported as averages from 100–150 measurements.

[2] = HPLC sedimentation assay (modified Wetzel protocol) of peptide self-assembly / coassembly
Procedure: (§1) The self-assembly of L- and D-Ac-KLVFFAE-NH2 peptides was compared to the assembly properties of an equimolar mixture of the enantiomers. The peptides were prepared via standard Fmoc solid phase peptide synthesis, purified by reverse-phase HPLC, and characterized by MALDI-TOF mass spectrometry (see Materials and Methods section for experimental details and Supplementary Materials for characterization and purity data). Prior to self-assembly, peptides were disaggregated by sequential treatment with trifluoroacetic acid and hexafluoroisopropanol using a modified Wetzel protocol; peptide concentrations were determined by comparison to standard analytical HPLC curves (see Supplementary Materials for details), as described previously for studies with Aβ(16–22). Disaggregated, lyophilized peptides were then dissolved in DMSO and diluted into phosphate-buffered saline (pH 7.4) to reach total peptide concentrations of 110 μM (55 μM of each L- and D-enantiomer for mixed coassembly studies) (final DMSO concentration was 5% v/v). Upon dilution, peptides were incubated at 37 °C for assembly.
Comparison of self-assembly and coassembly of Aβ(16–22) was conducted by a time-dependent sedimentation analysis. For these studies, we adapted Wetzel’s HPLC sedimentation protocol that we have previously used to assess Aβ(16–22) self-assembly. Aliquots of self-assembly and coassembly mixtures were removed over time and subjected to ultracentrifugation to remove fibrils and […] order aggregates after which the concentration of unaggregated peptide was quantified. In these analyses, equilibrium between monomer and fibril is eventually reached, with the final monomer concentration, or critical concentration (Cr), providing a quantitative characterization of the dynamic equilibrium between fibrils of length n and monomer with fibrils of length n + 1. […]
Sedimentation assays were performed using a modified Wetzel protocol. […] These solutions were then analyzed by analytical HPLC for correlation to a concentration curve to determine remaining monomer concentration.

[3] = Visual observation of precipitate after dilution into PBS; conditions: 110 μM total peptide, DMSO stock diluted into PBS pH 7.4, 5% v/v DMSO
Procedure: as §1

CC(=O)N[C@H](CCCCN)C(=O)N[C@H](CC(C)C)C(=O)N[C@@H](C(=O)N[C@H](Cc1ccccc1)C(=O)N[C@H](Cc1ccccc1)C(=O)N[C@H](C)C(=O)N[C@H](CCC(=O)O)C(N)=O)C(C)C [D-Aβ(16–22), D-Ac-KLVFFAE-NH2] (Ac-[dK][dL][dV][dF][dF][dA][dE]-NH2)
width of assemblies (TEM) [1]: 11.8 ± 0.5 nm

CC(=O)N[C@@H](CCCCN)C(=O)N[C@@H](CC(C)C)C(=O)N[C@H](C(=O)N[C@@H](Cc1ccccc1)C(=O)N[C@@H](Cc1ccccc1)C(=O)N[C@@H](C)C(=O)N[C@@H](CCC(=O)O)C(N)=O)C(C)C [L-Aβ(16–22), Ac-KLVFFAE-NH2] (Ac-KLVFFAE-NH2)
width of assemblies (TEM) [1]: 11.8 ± 0.5 nm

Ac-KLVFFAE-NH2 [single enantiomer Aβ(16–22), self-assembled single enantiomer Aβ(16–22) sample (L- or D-enantiomer alone), pleated β-sheet]
critical concentration (Cr), final monomer concentration at equilibrium ([2]; 110 μM total peptide (55 μM each enantiomer in mixture), PBS pH 7.4, 5% v/v DMSO, 0.1% NaN3, 37 °C, up to 21 days, aliquots centrifuged 436,000 × g 1 h 4 °C, supernatant monomer by analytical HPLC): 24 ± 6 µM
time to reach equilibrium (constant monomer concentration) ([2]; 110 μM total peptide, PBS pH 7.4, 5% DMSO, 37 °C, monomer by HPLC after ultracentrifugation): required over two weeks to reach a constant monomer concentration
ΔG for addition of monomer to fibril at equilibrium ([2]; from Cr = 1/Ka, PBS pH 7.4, 5% DMSO, 37 °C, 110 μM total peptide): -6.6 ± 0.2 kcal/mol
visible precipitate immediately after gentle mixing [3]: not in the single enantiomer self-assembly controls
